Laboratory results published in US20260174778A1, “SULFONAMIDE COMPOUND, AND PREPARATION METHOD THEREFOR AND USE THEREOF” (SHANGHAI HENLIUS BIOTECH, INC., priority 2023, published 2026).

System: human breast cancer ZR-75-1 cell xenograft tumor
Assay: Anti-tumor effect in ER+KAT6high breast cancer cell xenograft tumor model (Test Example 6)
Type: in vivo, Balb/c nude mice
Conditions: for T/C / TGI / mean tumor volume: day 34; for efficacy compared to PF-8144: 0.1 mg/kg and 0.3 mg/kg PO QD; for body weight changes compared to the PF-8144 group: all doses (0.1, 0.3 mg/kg)
Procedure: Test Example 6: Anti-Tumor Effects of Test Compounds in ER^+KAT6^high Breast Cancer Cell-Xenograft Tumor Model
Assay method: ZR-75-1 cells were subcutaneously inoculated into the right back of each mouse to evaluate the efficacy of the compounds in the subcutaneous xenograft tumor model of ZR-75-1 cells.
• 1. Cell culture: ZR-75-1 cells were cultured as a monolayer in vitro under the following culture conditions: an RPMI 1640 medium supplemented with 10% fetal bovine serum and 1% Anti-anti (Antibiotic-Antimycotic), incubated in an incubator at 37° C. with 5% CO2. The cells were digested with trypsin-EDTA twice a week for passaging as per conventional practice. When the cell saturation reached 80%-90% and the quantity met the requirement, the cells were harvested, counted, and inoculated. • 2. Animals: Balb/c nude mice, female, 6-8 weeks old, weighing 18-22 g. A total of 115 mice were required (72 mice were enrolled). They were provided by Vital River or other qualified suppliers. • 3. Tumor inoculation: Two days before tumor inoculation, 17-beta estradiol tablets (0.18 mg) were subcutaneously administered, and 10 million ZR-75-1 tumor cells+matrigel (total […]) were subcutaneously inoculated into the right back of each mouse. When the mean tumor volume reached about 131 mm^3, the mice were grouped for administration. • 4. Experimental administration: The compounds were dissolved in 5% DMSO+5% Tween 80+90% Saline or 10% DMSO+10% Solutol+80% (10% HPP-CD in saline), and administered intragastrically (PO) daily for five weeks. • 5. Experimental indicators: The experimental indicators were to investigate whether the tumor growth was inhibited or delayed or the tumor was cured. Tumor diameters were measured twice weekly using a vernier caliper. The tumor volume was calculated using the following formula: V=0.5a×b^2, where a and b represent the long diameter and short diameter of the tumor, respectively. • 6. The anti-tumor efficacy of the compounds was evaluated by TGI (%) or relative tumor proliferation rate T/C (%). TGI (%) refers to the tumor growth inhibition rate. Calculation of TGI (%):TGI (%)=[(1−(mean tumor volume at the end of administration in a treatment group—mean tumor volume at the start of administration in the treatment group))/(mean tumor volume at the end of treatment in the solvent control group—mean tumor volume at the start of treatment in the solvent control group)]×100%. The calculation formula for the relative tumor proliferation rate T/C (%) was as follows: T/C %=TRTV/CRTV×100% (TRTV:RTV of the treatment group; CRTV:RTV of the negative control group). The relative tumor volume (RTV) was calculated based on the tumor measurement results using the following formula: RTV=Vt/V0, where V0 represents the mean tumor volume measured at the time of grouping for administration (i.e., PG-DO), and Vt represents the mean tumor volume at a certain measurement. TRTV and CRTV were derived from data measured on the same day.
The mean and standard error of mean (SEM) of tumor volume at each time point for each group were included. The differences in tumor volume and tumor weight among the groups were statistically analyzed. For comparisons among three or more groups, one-way ANOVA was used for analysis. […] The analysis was performed using SPSS 17.0, and p<0.05 was considered to indicate a significant difference.
For comparisons between different doses of the same drug or different drugs at the same dose, two-way ANOVA was used for analysis, and the Bonferroni method was applied for testing. The analysis was performed using GraphPad Prism 9.0, and p<0.05 was considered to indicate a significant difference. On day 34 after the start of administration, the data between different doses of the same drug or different drugs at the same dose were analyzed using one-way ANOVA. […] The analysis was performed using SPSS 17.0, and p<0.05 was considered to indicate a significant difference.

Structure (SMILES)	T/C (0.1 mg/kg PO QD) [%]	TGI (0.1 mg/kg PO QD) [%]	mean tumor volume (0.1 mg/kg PO QD) [mm^3]	efficacy compared to PF-8144	T/C (0.3 mg/kg PO QD) [%]	TGI (0.3 mg/kg PO QD) [%]	mean tumor volume (0.3 mg/kg PO QD) [mm^3]	body weight changes compared to the PF-8144 group
COc1ccc2c(c1S(=O)(=O)Nc1noc3cc(Cn4cccn4)c(F)c(OC)c13)OCCC2=O [Compound 42, N-(6-((1H-Pyrazol-1-yl)methyl)-5-fluoro-4-methoxybenzo[d]isoxazol-3-yl)-7-methoxy-4-oxochromane-8-sulfonamide]	3.9	108.67	44	significantly superior in efficacy to PF-8144	2.2	110.58	25	no statistically significant difference
COc1ccc2c(c1S(=O)(=O)Nc1noc3cc(Cn4cccn4)c(F)c(OC)c13)OCCCO2 [Compound 114, N-(6-((1H-Pyrazol-1-yl)methyl)-5-fluoro-4-methoxybenzo[d]isoxazol-3-yl)-7-methoxy-3,4-dihydro-2H-benzo[b][1,4]dioxepine-6-sulfonamide]	35.8	72.61	403	–	10.5	101.21	119	no statistically significant difference
COc1ccc2c(c1S(=O)(=O)Nc1noc3cc(Cn4cccn4)c(F)c(OC)c13)OCCCN2C [Compound 115, N-(6-((1H-Pyrazol-1-yl)methyl)-5-fluoro-4-methoxybenzo[d]isoxazol-3-yl)-8-methoxy-5-methyl-2,3,4,5-tetrahydrobenzo[b][1,4]oxazepine-9-sulfonamide]	8.6	103.38	97	significantly superior in efficacy to PF-8144	2.4	110.47	27	no statistically significant difference
COc1ccccc1S(=O)(=O)Nc1noc2cc(Cn3cccn3)cc(OC)c12 [PF-8144, reference compound]	36.2	72.2	407	–	19.5	91.07	220	–
